Results: the supplement of paper PMC10307832

Columns and labels:
Test in all cases: relative viability (nuclei count vs DMSO), 5 days (fraction); higher = more cells survive
Quizartinib + Luminespib = compound: CC(C)(C)c1cc(NC(=O)Nc2ccc(-c3cn4c(n3)sc3cc(OCCN5CCOCC5)ccc34)cc2)no1 [Quizartinib] + CCNC(=O)c1noc(-c2cc(C(C)C)c(O)cc2O)c1-c1ccc(CN2CCOCC2)cc1 [Luminespib] (partner 0.01 µM)
In short: (§1)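 Lung cancer cell lines were pin-tool dosed in 1536-well plates on the day after seeding, with either a lone drug or a fixed anchor-drug dose plus five library-drug doses (not always all listed) in √10 steps. Nuclei were counted on 4× images after 5 days. Relative viability is the ratio of treated-well to vehicle-well nuclei counts, with each value a median of duplicate plates.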

YM155 + AZD7762 = compound: COCC[n+]1c2c(n(Cc3cnccn3)c1C)C(=O)c1ccccc1C2=O [YM155] + NC(=O)Nc1cc(-c2cccc(F)c2)sc1C(=O)N[C@H]1CCCNC1 [AZD7762] (partner 0.2 µM)
In short: as §1

Quizartinib + Pictilisib = compound: CC(C)(C)c1cc(NC(=O)Nc2ccc(-c3cn4c(n3)sc3cc(OCCN5CCOCC5)ccc34)cc2)no1 [Quizartinib] + CS(=O)(=O)N1CCN(Cc2cc3nc(-c4cccc5[nH]ncc45)nc(N4CCOCC4)c3s2)CC1 [Pictilisib] (partner 1 µM)
In short: as §1

YM155 + OSI-027 = compound: COCC[n+]1c2c(n(Cc3cnccn3)c1C)C(=O)c1ccccc1C2=O [YM155] + COc1cccc2cc(-c3nc([C@H]4CC[C@H](C(=O)O)CC4)n4ncnc(N)c34)[nH]c12 [OSI-027] (partner 0.5 µM)
In short: as §1

Cell Line	relative viability (Quizartinib + Luminespib; first compound 0.001 µM)	relative viability (Quizartinib + Luminespib; first compound 0.003162 µM)	relative viability (Quizartinib + Luminespib; first compound 0.01 µM)	relative viability (Quizartinib + Luminespib; first compound 0.03162 µM)	relative viability (Quizartinib + Luminespib; first compound 0.1 µM)	relative viability (YM155 + AZD7762; first compound 0.002 µM)	relative viability (YM155 + AZD7762; first compound 0.006325 µM)	relative viability (YM155 + AZD7762; first compound 0.02 µM)	relative viability (YM155 + AZD7762; first compound 0.06325 µM)	relative viability (Quizartinib + Pictilisib; first compound 0.001 µM)	relative viability (Quizartinib + Pictilisib; first compound 0.003162 µM)	relative viability (Quizartinib + Pictilisib; first compound 0.01 µM)	relative viability (Quizartinib + Pictilisib; first compound 0.03162 µM)	relative viability (Quizartinib + Pictilisib; first compound 0.1 µM)	relative viability (YM155 + OSI-027; first compound 0.002 µM)	relative viability (YM155 + OSI-027; first compound 0.006325 µM)	relative viability (YM155 + OSI-027; first compound 0.02 µM)	relative viability (YM155 + OSI-027; first compound 0.06325 µM)
NCI-H3122	0.0909	0.0886	0.079	0.106	0.112	1.02	1.03	0.974	0.971	0.625	0.534	0.608	0.626	0.58	0.995	1	1.05	0.715
HARA		0.684	0.933	0.526	0.566		0.542	0.521	0.499	0.345	0.372	0.305	0.3	0.477	0.495	0.51	0.792	0.505
LK-2	0.162		0.193	0.205	0.22	0.445	0.305	0.494	0.438	0.594	0.474	0.826	0.526	0.55	0.187	0.21	0.214	0.201
NCI-H596	0.922	0.884	1.02	0.852	0.888	0.989	0.98	1.28	1.11	0.427	0.332	0.455	0.418	0.416	0.735	0.806	0.743	0.85
